Where two headings read alike, the source gives them in different places.
Assays:
Format in all cases: biochemical, cynomolgus monkey
[1] = biological target: cortisol synthase (CYP11B1) (Macaca fascicularis, UniProt A0A2K5ULY1); test: Inhibition of cortisol synthesis (cynomolgus adrenal mitochondria, cortisol by mass spectrometry)
Description: The aldosterone synthase and cortisol synthase inhibition assays employ cynomolgus adrenal gland mitochondria as the source of aldosterone synthase (CYP11B2) and cortisol synthase (CYP11B1). Mitochondria are prepared from frozen cynomolgus monkey adrenal glands according to Method A described in by J. D. McGarry et al. (Biochem. J., 1983, 214, 21-28), with a final resuspension in the AT buffer described in R. Yamaguchi et al. (Cell Death and Differentiation, 2007, 14, 616-624), frozen as aliquots in liquid nitrogen and stored at −80° C. until use. One unit of CYP11B2 and CYP11B1 activity in these preparations is defined as the amount of enzyme that generates 1 pmol of product in one hour under the conditions described.
(§1) Assays are performed in 96-well format in a final volume of 60 microL/well, containing 100 mM potassium phosphate, pH 7.4, 1% (v/v) DMSO, and additionally, 2 μM of corticosterone and 50 units of CYP11B2 activity. Reactions are started by the addition of NADPH to 1 mM and allowed to proceed for 90 minutes at 37° C. Reactions are terminated by the addition of 60 μL of MeCN containing an internal standard for mass spectrometry. One hundred microliters are then transferred to a glass filter plate and centrifuged at 570×g for 5 minutes and the filtrate is collected. Reaction product aldosterone is quantified by mass spectrometry. To determine the assay blank value (0% activity), NADPH is omitted from some reactions.
Dose dependent inhibition is quantified by the inclusion of compound at various concentrations. Maximum activity (100%) is defined by reactions containing NADPH, but without compound. Activities at each concentration are expressed as a percentage of the maximum activity (y-axis) and plotted against concentration of compound (x-axis) and the concentration corresponding to 50% activity (IC50) determined using the XLFit curve-fitting program using a 4-parameter logistic model.
Assays are performed as for aldosterone synthase except for the use of 150 units of CYP11B1, 11-deoxycortisol as substrate and cortisol measured as product.

[2] = biological target: aldosterone synthase (CYP11B2) (Macaca fascicularis, UniProt A0A2K5UPL9); test: Inhibition of aldosterone synthase (cynomolgus adrenal mitochondria, aldosterone by mass spectrometry)
Sequence of aldosterone synthase (CYP11B2) (Macaca fascicularis, UniProt A0A2K5UPL9) (A0A2K5UPL9 1-503): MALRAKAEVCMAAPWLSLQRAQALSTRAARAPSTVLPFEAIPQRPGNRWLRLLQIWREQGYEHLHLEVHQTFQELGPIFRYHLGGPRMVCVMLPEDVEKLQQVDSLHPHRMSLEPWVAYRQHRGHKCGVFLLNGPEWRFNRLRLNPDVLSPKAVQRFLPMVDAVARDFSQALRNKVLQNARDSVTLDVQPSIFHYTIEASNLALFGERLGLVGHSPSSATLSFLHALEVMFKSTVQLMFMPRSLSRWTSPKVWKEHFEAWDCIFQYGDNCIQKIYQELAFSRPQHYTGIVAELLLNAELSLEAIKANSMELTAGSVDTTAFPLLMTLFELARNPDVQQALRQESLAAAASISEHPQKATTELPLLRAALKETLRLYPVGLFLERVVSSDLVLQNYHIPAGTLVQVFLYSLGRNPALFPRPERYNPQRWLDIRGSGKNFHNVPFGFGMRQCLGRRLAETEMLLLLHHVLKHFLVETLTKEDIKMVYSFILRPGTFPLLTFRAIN
Description: (§2) The aldosterone synthase and cortisol synthase inhibition assays employ cynomolgus adrenal gland mitochondria as the source of aldosterone synthase (CYP11B2) and cortisol synthase (CYP11B1). […] One unit of CYP11B2 and CYP11B1 activity in these preparations is defined as the amount of enzyme that generates 1 pmol of product in one hour under the conditions described.
(§3) The compounds of the invention may be evaluated for aldosterone synthase inhibition by the following assay:
as §1
(§4) Dose dependent inhibition is quantified by the inclusion of compound at various concentrations. Maximum activity (100%) is defined by reactions containing NADPH, but without compound.

[3] = system: aldosterone synthase (CYP11B2); test: as above; details: selectivity for aldosterone synthase inhibition over cortisol synthase (CYP11B1) inhibition, fold
Description: as §2, §3, §1, §4

[4] = 11-deoxycortisol substrate, 150 units CYP11B1; read-out: Cortisol Inhibition IC50
[5] = 2 μM corticosterone substrate, 50 units CYP11B2, 90 min, 37° C., read-out: Aldosterone Inhibition IC50
[6] = read-out: Cortisol Inhibition IC50; 11-deoxycortisol substrate, 150 units CYP11B1

Row | Compound | IC50 [1, 4] [nM] | IC50 [2, 5] [nM] | Selectivity [3] | IC50 [1, 6] [nM] | IC50 [2] [nM]
1 | O=C1CCCc2ncn(-c3ccc4c(c3)OCCO4)c21 [C-AAI, 3-(2,3-Dihydro-benzo[1,4]dioxin-6-yl)-3,5,6,7-tetrahydro-benzoimidazol-4-one] | > 30000 | 160 | 180 | – | –
2 | CC1(C)CC(=O)c2c(ncn2Cc2ccc(-n3cncn3)cc2)C1 [C-ADB, 6,6-Dimethyl-3-(4-[1,2,4]triazol-1-yl-benzyl)-3,5,6,7-tetrahydro-benzoimidazol-4-one] | 7400 | 540 | 14 | – | –
3 | CN1C(=O)CCc2cc(-n3cnc4c3C(=O)CC3(CCOCC3)C4)ccc21 [C-AAP, 3-(1-Methyl-2-oxo-3,4-dihydroquinolin-6-yl)spiro[5,7-dihydrobenzoimidazole-6,4′-tetrahydropyran]-4-one] | > 30000 | 460 | 65 | – | –
4 | CC1(C)CC(=O)c2c(ncn2Cc2ccc(C(C)(C)O)cc2)C1 [C-ADV, 3-[4-(1-Hydroxy-1-methyl-ethyl)-benzyl]-6,6-dimethyl-3,5,6,7-tetrahydro-benzoimidazol-4-one] | 35 | 25 | 1.4 | – | –
5 | CN1C(=O)COc2cc(-n3cnc4c3C(=O)CCC4)ccc21 [C-AAN, 4-Methyl-7-(7-oxo-4,5,6,7-tetrahydro-benzoimidazol-1-yl)-4H-benzo[1,4]oxazin-3-one] | > 30000 | 84 | 360 | – | –
6 | CC1(C)CC(=O)c2c(ncn2-c2cccc(Cl)c2Cl)C1 [C-ABF, 3-(2,3-Dichloro-phenyl)-6,6-dimethyl-3,5,6,7-tetrahydro-benzoimidazol-4-one] | 610 | 3.8 | 160 | – | –
7 | CC1(C)CC(=O)c2c(ncn2CC2CC2)C1 [C-ADA, 3-Cyclopropylmethyl-6,6-dimethyl-3,5,6,7-tetrahydro-benzoimidazol-4-one] | 12000 | 530 | 23 | – | –
8 | CC1(C)CC(=O)c2c(ncn2-c2ccc(Cl)cc2Cl)C1 [C-ABG, 3-(2,4-Dichloro-phenyl)-6,6-dimethyl-3,5,6,7-tetrahydro-benzoimidazol-4-one] | 500 | 4.2 | 120 | – | –
9 | COc1ccc(-n2cnc3c2C(=O)CC(C)(C)C3)cc1 [C-ABR, 3-(4-Methoxy-phenyl)-6,6-dimethyl-3,5,6,7-tetrahydro-benzoimidazol-4-one] | 21000 | 130 | 150 | – | –
10 | CC(=O)N1CCCc2cc(-n3cnc4c3C(=O)CCC4)ccc21 [C-AAF, 3-(1-Acetyl-1,2,3,4-tetrahydro-quinolin-6-yl)-3,5,6,7-tetrahydro-benzoimidazol-4-one] | 10000 | 37 | 270 | – | –
11 | CC(=O)N1CCc2cc(-n3cnc4c3C(=O)CCC4)ccc21 [C-AAA, 3-(1-Acetyl-2,3-dihydro-1H-indol-5-yl)-3,5,6,7-tetrahydro-benzoimidazol-4-one] | > 30000 | 510 | 59 | – | –
12 | CC1(C)CC(=O)c2c(ncn2CC2CCOC2)C1 (stereo not shown) [C-ACX, 6,6-Dimethyl-3-(tetrahydro-furan-3-ylmethyl)-3,5,6,7-tetrahydro-benzoimidazol-4-one] | > 30000 | 870 | 35 | – | –
13 | Cc1cc(-n2cnc3c2C(=O)CC2(CCOCC2)C3)ccc1C#N [C-AAO, 2-Methyl-4-(7-oxospiro[4,6-dihydrobenzoimidazole-5,4′-tetrahydropyran]-1-yl)benzonitrile] | 2300 | 77 | 30 | – | –
14 | CC1(C)CC(=O)c2c(ncn2[C@H]2C[C@@H]3CC[C@H]2C3)C1 [C-ACL, 3-(1S,2S,3R)-Bicyclo[2.2.1]hept-2-1-6,6-dimethyl-3,5,6,7-tetrahydro-benzoimidazol-4-one] | 16000 | 180 | 87 | – | –
15 | CC1(C)CC(=O)c2c(ncn2-c2cccc(Cl)c2)C1 [C-ABK, 3-(3-Chloro-phenyl)-6,6-dimethyl-3,5,6,7-tetrahydro-benzoimidazol-4-one] | 7000 | 19 | 370 | – | –
16 | CC1(C)CC(=O)c2c(ncn2-c2ccc(C(F)(F)F)cc2)C1 [C-ACI, 6,6-Dimethyl-3-(4-trifluoromethyl-phenyl)-3,5,6,7-tetrahydro-benzoimidazol-4-one] | 18000 | 62 | 290 | – | –
17 | CC1(C)CC(=O)c2c(ncn2C2CCc3ccccc32)C1 (stereo not shown) [C-ACQ, 3-Indan-1-yl-6,6-dimethyl-3,5,6,7-tetrahydro-benzoimidazol-4-one] | > 30000 | 220 | 130 | – | –
18 | CC1(C)CC(=O)c2c(ncn2C2CC(c3ccccc3)C2)C1 (stereo not shown) [C-ACU, 6,6-Dimethyl-3-(3-phenyl-cyclobutyl)-3,5,6,7-tetrahydro-benzoimidazol-4-one] | 9400 | 110 | 85 | – | –
19 | CC1(C)CC(=O)c2c(ncn2C2CC3(COC3)C2)C1 [C-ACT, 6,6-Dimethyl-3-(2-oxa-spiro[3.3]hept-6-yl)-3,5,6,7-tetrahydro-benzoimidazol-4-one] | > 30000 | 780 | 38 | – | –
20 | O=C1CCCc2ncn(-c3ccc4c(c3)CCO4)c21 [C-AAE, 3-(2,3-Dihydro-benzofuran-5-yl)-3,5,6,7-tetrahydro-benzoimidazol-4-one] | 9400 | 11 | 890 | – | –
21 | N#Cc1ccc(-n2cnc3c2C(=O)CCC3)cc1 [C-AAL, 4-(7-Oxo-4,5,6,7-tetrahydro-benzoimidazol-1-yl)-benzonitrile] | 4600 | 19 | 250 | – | –
22 | CN1C(=O)CCc2cc(-n3cnc4c3C(=O)CCC4)ccc21 [C-ACD, 1-Methyl-6-(7-oxo-4,5,6,7-tetrahydro-benzoimidazol-1-yl)-3,4-dihydro-1H-quinolin-2-one] | 55000 | 60 | 920 | – | –
23 | CC1(C)CC(=O)c2c(ncn2-c2ccc(C#N)c(Cl)c2)C1 [C-ABE, 2-Chloro-4-(5,5-dimethyl-7-oxo-4,5,6,7-tetrahydro-benzoimidazol-1-yl)-benzonitrile] | – | 1.3 | 79 | 110 | –
24 | N#Cc1ccc(-n2cnc3c2C(=O)C[C@H](C(N)=O)C3)cc1Cl [C-AEB-B, (R)-1-(3-Chloro-4-cyano-phenyl)-7-oxo-4,5,6,7-tetrahydro-1H-benzoimidazole-5-carboxylic acid amide] | – | 32 | 940 | > 30000 | –
25 | Cn1ncc2cc(-n3cnc4c3C(=O)CCC4)ccc21 [C-AAG, 3-(1-Methyl-1H-indazol-5-yl)-3,5,67,-tetrahydro-benzoimidazol-4-one] | > 30000 | 100 | 300 | – | –
26 | CC1(C)CC(=O)c2c(ncn2C2CCCCc3ccccc32)C1 (stereo not shown) [C-ACW, 6,6-Dimethyl-3-(6,7,8,9-tetrahydro-5H-benzocyclohepten-5-yl)-3,5,6,7-tetrahydro-benzoimidazol-4-one] | 7200 | 24 | 300 | – | –
27 | O=C1CC2(CCC2)Cc2ncn(-c3ccc(F)c(F)c3)c21 [C-ACE] | 630 | 20 | 32 | – | –
28 | N#Cc1ccc(-n2cnc3c2C(=O)CCC3)c(C2CC2)c1 [C-AAK, 3-Cyclopropyl-4-(7-oxo-4,5,6,7-tetrahydro-benzoimidazol-1-yl)-benzonitrile] | 17000 | 34 | 500 | – | –
29 | N#Cc1ccc(-n2cnc3c2C(=O)CCC3)nc1 [C-ADW, 6-(7-Oxo-4,5,6,7-tetrahydro-benzoimidazol-1-yl)-nicotinonitrile] | 25000 | – | – | – | 290
30 | O=C1CCCc2ncn(-c3ccc(Cl)c(Cl)c3)c21 [C-ACC, 3-(3,4-Dichloro-phenyl)-3,5,6,7-tetrahydro-benzoimidazol-4-one] | 1000 | 5.5 | – | – | –
